From patent EP3222712A1, “ALCOHOL DEHYDROGENASE FROM PICHIA PASTORIS AND USE THEREOF” (priority 2016, dated 2017)

How the values were obtained:
[1] = test system: alcohol dehydrogenase from Pichia pastoris (PPADH); assay: biotransformation by purified PPADH with GDH co-factor regeneration, gas chromatography; assay type: biochemical; settings: 2 hours reaction time
[2] = target: T1, alcohol dehydrogenase from Pichia pastoris (PPADH) (Komagataella phaffii, UniProt C4R4L0); assay: photometric assay, reduction of aldehydes and ketones by purified PPADH (NADPH, 340 nm); assay type: biochemical, Pichia pastoris GS 115; settings: for relative activity: 38.6 U/mg with benzaldehyde set to 100%; for specific activity: purified PPADH, 10 mM substrate (sample 4: 20 mM), 0.2 mM NADPH, tris HCl pH 7, 25°C
Experimental: (§1) In a first step, crude extract containing recombinant alcohol dehydrogenase from Pichia pastoris via cell disruption of E. coli BL21(DE3) overexpressing in vector pET28a-PPADH carrying an N-terminal 6xHis tag. Cells were resuspended in 10 mM tris HCl buffer (pH 7) to yield a 25% cell suspension and were disrupted by sonification under cooling. Three cycles of 2 min of 25% power output followed by 1 min cooling were used. After repeated centrifugation a cell-free crude extract was obtained. Afterwards the PPADH was purified as described in example 3c).
(§2) Determination of the enzymatic activity of the purified PPADH can be determined via a oxidation or reduction reaction. For determination of the reduction the following compounds were used: tris HCl buffer (100 mM, pH 7), 0.2 mM NADPH, 10 mM substrate selected from the aldehydes and ketones as given in Table 2 and 10 µl enzyme (purified PPADH). For determination of the oxidation the following compounds were used: tris HCl buffer (100 mM, pH 9), 0.2 mM NADP^+, 10 mM substrate selected from the alcohols as given in Table 3 and 10 µl enzyme (purified PPADH). The reaction was performed in 1 cm-cuvettes. The compounds were mixed in the cuvette used for the experiment, which was placed in the photometer and data recording was started. The enzyme solution was added only immediately before the start of the measurement. The activity of the enzyme was determined by photometric detection of the concentration of NADPH after a certain time interval. Measurement was carried out at a temperature of 25°C, a wavelength of 340 nm and over a time interval of 1 min. Table 2: enzymatic activity of PPADH regarding the reduction of different substrates determined by photometry

[3] = target: T1, alcohol dehydrogenase from Pichia pastoris (PPADH); assay: photometric assay, oxidation of alcohols by purified PPADH (NADP+, 340 nm); assay type: biochemical, Pichia pastoris GS 115; settings: for specific activity: purified PPADH, 10 mM substrate, 0.2 mM NADP+, tris HCl pH 9, 25°C; for relative activity: 6.6 U/mg set to 100%
Experimental: as §1
as §2, with “min.” for “min. Table 2: enzymatic activity of PPADH regarding the reduction of different substrates determined by photometry”

[4] = CF3-ketone derivatives, alcohol formed related to the reduction of (S)-ketone
[5] = acetophenone derivatives, related to the alcohol formed

T1 sequence (C4R4L0 entry or part of it): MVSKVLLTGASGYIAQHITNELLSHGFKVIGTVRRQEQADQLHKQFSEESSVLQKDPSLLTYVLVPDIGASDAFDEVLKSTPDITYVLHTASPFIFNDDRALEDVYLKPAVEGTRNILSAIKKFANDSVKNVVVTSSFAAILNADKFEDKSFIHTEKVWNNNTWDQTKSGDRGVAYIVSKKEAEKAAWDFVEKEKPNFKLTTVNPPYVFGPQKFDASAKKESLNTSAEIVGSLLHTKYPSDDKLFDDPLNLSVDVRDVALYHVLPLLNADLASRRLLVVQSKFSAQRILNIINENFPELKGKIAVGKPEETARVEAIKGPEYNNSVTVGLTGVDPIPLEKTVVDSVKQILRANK

## COC(C)(CC(C)=O)c1ccccc1 (racemic) [NOD-VI-405]
[1]; CF3-ketone derivatives
  level of turnover: +++ (+++ =20-55 %)
[1]; [4]
  turnover: 20.3%

## CC(=O)CC(O)(c1ccc(Cl)cc1)C(F)(F)F (racemic) [Nod362]
[1]; CF3-ketone derivatives
  level of turnover: +++++ (+++++ = 75 - 100 %)
  turnover: quant.

## CC(=O)CC(O)(c1ccccc1)C(F)(F)F (racemic) [compound 4]
[2]
  relative activity: 97.2%
  specific activity: 37.5 U/mg

## CCC(O)CO (stereo not drawn) [1,2-butanediol]
[3]
  specific activity: < 0.5 U/mg

## CC(O)CO (stereo not drawn) [1,2-propanediol]
[3]
  specific activity: < 0.5 U/mg

## CC(O)c1ccc(Cl)cc1 (stereo not drawn) [1-(4-chlorophenyl)ethanol]
[3]
  specific activity: < 0.5 U/mg

## C=CC(O)CC (stereo not drawn) [1-penten-3-ol]
[3]
  specific activity: < 0.5 U/mg

## O=C(c1ccccc1Br)C(F)(F)F [2'-Bromo-2,2,2-trifluoroacetophenone]
[1]; acetophenone derivatives
  level of turnover: + (+=1-5%)
[1]; [5]
  turnover: <5%

## COc1ccccc1C(C)=O [2'-Methoxyacetophenone]
[1]; acetophenone derivatives
  level of turnover: + (+=1-5%)
[1]; [5]
  turnover: <5%

## CC(=O)c1ccccc1Br [2'-bromoacetophenone]
[1]; acetophenone derivatives
  level of turnover: + (+=1-5%)
[1]; [5]
  turnover: <5%

## O=C(c1ccccc1)C(F)(F)F [2,2,2-Trifluoroacetophenone]
[1]; acetophenone derivatives
  level of turnover: +++ (+++=20-55%)
[1]; [5]
  turnover: 24.2%

## CC(O)C(C)O (stereo not drawn) [2,3-butanediol]
[3]
  specific activity: < 0.5 U/mg

## O=C(CO)c1ccccc1 [2-Hydroxyacetophenone]
[1]; acetophenone derivatives
  level of turnover: + (+=1-5%)
[1]; [5]
  turnover: <5%

## COCC(=O)c1ccccc1 [2-Methoxyacetophenone]
[1]; acetophenone derivatives
  level of turnover: - (-=0-1%)
[1]; [5]
  turnover: <1%

## OC1C=CCCC1 (stereo not drawn) [2-cyclohexen-1-ol]
[3]
  specific activity: < 0.5 U/mg

## CCCCC(C)=O [2-hexanone]
[2]
  specific activity: < 0.5 U/mg

## CCCCCCCC(C)=O [2-nonanone]
[2]
  specific activity: < 0.5 U/mg

## CCCCCCC(C)=O [2-octanone]
[2]
  specific activity: < 0.5 U/mg

## CC(CO)c1ccccc1 (stereo not drawn) [2-phenyl-1-propanol]
[3]
  specific activity: < 0.5 U/mg

## CC1CC(=O)CC(C)(C)C1 (stereo not drawn) [3,3,5-trimethylcyclohexanone]
[2]
  specific activity: < 0.5 U/mg

## O=C(c1ccc(Cl)cc1)C(F)(F)F [4'-Chloro-2,2,2-trifluoro acetophenone]
[1]; acetophenone derivatives
  level of turnover: ++ (++=5-20%)
[1]; [5]
  turnover: 12.4%

## CCC(=O)C(O)CC (stereo not drawn) [4-hydoxy-3-hexanone]
[2]
  specific activity: < 0.5 U/mg

## COC(C)(C)CC(C)=O [4-methoxy-4-metyhl-2-pentanone]
[2]
  specific activity: < 0.5 U/mg

## CC(=O)CC(C)C [4-methyl-2-pentanone]
[2]
  specific activity: < 0.5 U/mg

## CC(C)=C1CC[C@@H](C)CC1=O [(+)-pulegon]
[2]
  specific activity: < 0.5 U/mg

## C=C(C)[C@@H]1CC=C(C)C(=O)C1 [(-)-carvone]
[2]
  specific activity: < 0.5 U/mg

## CC(C)[C@@H]1CC[C@@H](C)CC1=O [(-)-menthone]
[2]
  specific activity: < 0.5 U/mg

## C[C@@H](O)c1ccccc1 [(R)-(+)-1-phenylethanol]
[3]
  specific activity: < 0.5 U/mg

## CCCCCC[C@@H](C)O [(R)-(-)-2-octanol]
[3]
  specific activity: < 0.5 U/mg

## C=CCC[C@@H](C)O [(R)-(-)-5-hexen-2-ol]
[3]
  specific activity: < 0.5 U/mg

## CC[C@H](N)CO [(S)-(+)-2-amino-1-butanol]
[3]
  specific activity: < 0.5 U/mg

## CC[C@H](C)O [(S)-(+)-2-butanol]
[3]
  specific activity: < 0.5 U/mg

## CC(=O)CC(O)(c1ccc(F)cc1)C(F)(F)F (stereo not drawn) [Nod363 F4]
[1]; CF3-ketone derivatives
  level of turnover: +++++ (+++++ = 75 - 100 %)
  turnover: quant.

## CC(=O)CC(O)(c1ccc(C)cc1)C(F)(F)F (stereo not drawn) [Nod364 F3-Enon]
[1]; CF3-ketone derivatives
  level of turnover: +++++ (+++++ = 75 - 100 %)
  turnover: quant.

## COc1ccc(C(O)(CC(C)=O)C(F)(F)F)cc1 (stereo not drawn) [Nod365 F6]
[1]; CF3-ketone derivatives
  level of turnover: +++++ (+++++ = 75 - 100 %)
  turnover: quant.

## COc1ccccc1[C@@](O)(CC(C)=O)C(F)(F)F [Nod-3d]
[1]; CF3-ketone derivatives
  level of turnover: +++++ (+++++ = 75 - 100 %)
[1]; [4]
  turnover: 75.8%

## CC(C)=O [acetone]
[2]
  specific activity: < 0.5 U/mg

## CC(=O)c1ccccc1 [acetophenone]
[1]; acetophenone derivatives
  level of turnover: ++ (++=5-20%)
[1]; [5]
  turnover: 7.8%

## CC(=O)CCc1ccccc1 [benzylacetone]
[2]
  specific activity: < 0.5 U/mg

## OCc1ccccc1 [benzylalcohol]
[3]
  specific activity: < 0.5 U/mg

## O=Cc1ccccc1 [compound 1, benzaldehyde]
[2]
  relative activity: 100.0%
  specific activity: 38.6 U/mg

## CC(=O)c1ccccc1 [compound 2]
[2]
  relative activity: 0.2%
  specific activity: 0.06 U/mg

## O=C(c1ccccc1)C(F)(F)F [compound 3]
[2]
  relative activity: 0.3%
  specific activity: 0.10 U/mg

## CCCC=O [compound 5]
[2]
  relative activity: 176.2%
  specific activity: 68.0 U/mg

## CCCC(C)C=O (stereo not drawn) [compound 6]
[2]
  relative activity: 248.9%
  specific activity: 96.1 U/mg

## CCCCCC=O [compound 7]
[2]
  relative activity: 73.9%
  specific activity: 28.5 U/mg

## CCC/C=C/C=O [compound 8]
[2]
  relative activity: 97.2%
  specific activity: 37.5 U/mg

## CC(C)=CCC/C(C)=C/C=O [compound 9]
[2]
  relative activity: 46.1%
  specific activity: 17.8 U/mg

## CC(C)=CCCC(C)CC=O (stereo not drawn) [compound 10]
[2]
  relative activity: 71.9%
  specific activity: 27.8 U/mg

## CCOC(=O)C(Cl)C(C)=O (stereo not drawn) [compound 11]
[2]
  relative activity: 14.7%
  specific activity: 5.7 U/mg

## CCOC(=O)CC(=O)CCl [compound 12]
[2]
  relative activity: 98.3%
  specific activity: 38.0 U/mg

## CCCC(=O)CC(=O)OCC [compound 13]
[2]
  relative activity: 1.3%
  specific activity: 0.5 U/mg

## CC(=O)CC(C)=O [compound 14]
[2]
  relative activity: 8.5%
  specific activity: 3.3 U/mg

## C[C@@H](CO)c1ccccc1 [compound 15]
[3]
  relative activity: 16.0%
  specific activity: 1.06 U/mg

## OCCc1ccccc1Br [compound 16]
[3]
  relative activity: 29.3%
  specific activity: 1.94 U/mg

## CCCCO [compound 17]
[3]
  relative activity: 16.7%
  specific activity: 1.11 U/mg

## CCCC(C)CO (stereo not drawn) [compound 18]
[3]
  relative activity: 30.9%
  specific activity: 2.04 U/mg

## CCCC(C)O (stereo not drawn) [compound 19]
[3]
  relative activity: 38.3%
  specific activity: 2.53 U/mg

## C/C=C/C(C)O (stereo not drawn) [compound 20]
[3]
  relative activity: 19.5%
  specific activity: 1.29 U/mg

## CCCCC(C)O (stereo not drawn) [compound 22]
[3]
  relative activity: 54.9%
  specific activity: 3.62 U/mg

## CCCC[C@H](C)O [compound 23]
[3]
  relative activity: 100.0%
  specific activity: 6.61 U/mg

## C=CCC[C@H](C)O [compound 24]
[3]
  relative activity: 57.4%
  specific activity: 3.79 U/mg

## CCCCC[C@H](C)O [compound 25]
[3]
  relative activity: 31.6%
  specific activity: 2.09 U/mg

## CCCCCCC(C)O (stereo not drawn) [compound 26]
[3]
  relative activity: 8.7%
  specific activity: 0.57 U/mg

## CC(C)=CCCC(C)=CCO [compound 27]
[3]
  relative activity: 32.7%
  specific activity: 2.16 U/mg

## CC(C)=CCCC(C)=CCO [compound 28]
[3]
  relative activity: 18.0%
  specific activity: 1.19 U/mg

## OC1CCCCC1 [cyclohexanol]
[3]
  specific activity: < 0.5 U/mg

## O=C1C=CCCC1 [cyclohexen-1-on]
[2]
  specific activity: < 0.5 U/mg

## CC1(C)COC(=O)C1=O [dihydro-4,4-dimethyl-2,3-furandion]
[2]
  specific activity: < 0.5 U/mg

## CCOC(C)=O [ethylacetate]
[2]
  specific activity: < 0.5 U/mg

## CC12CCC(C1)C(C)(C)C2=O (stereo not drawn) [fenchon]
[2]
  specific activity: < 0.5 U/mg

## C=CC(O)CCCCC (stereo not drawn) [octen-3-ol]
[3]
  specific activity: < 0.5 U/mg

## CCC(=O)c1ccccc1 [propiophenone]
[2]
  specific activity: < 0.5 U/mg
